Measurements published in patent US9822126B1, “Substituted 1,2,3-triazol-1-yl-methyl-2,3-dihydro-2-methyl-6-nitroimidazo[2,1-b]oxazoles as anti-mycobacterial agents and a process for the preparation thereof” (priority 2014, dated 2017).
In brackets after ≈: the same amount, converted by molar mass. Read-outs that look alike come from different tables or passages of the source.

Assays:
Assay in all cases: microbe, parasite or virus in culture
Format in all cases: cell-based
[1] = test system: Rif^R: rifampicin resistant tuberculosis; settings: Mycobacterium tuberculosis, read-out: MIC (Rif^R)
[2] = test system: M. tuberculosis MDR (resistant to isoniazid and rifampicin); settings: Mycobacterium tuberculosis
[3] = test system: M. tuberculosis XDR (resistant to isoniazid, rifampicin, amikacin and moxifloxacin); settings: Mycobacterium tuberculosis, 504 h, read-out: MIC XDR
[4] = read-out: MIC against multi and extensive-drug resistant strains

Row | SMILES | MIC [1] | MIC ([2]; 504 h, read-out: MIC MDR) | MIC [3] | MIC [2, 4] | MIC ([2]; read-out: MIC value)
1 | C[C@]1(Cn2cc(-c3ccc(OC(F)(F)F)cc3)nn2)Cn2cc([N+](=O)[O-])nc2O1 [I1, (R)-2-Methyl-6-nitro-2-((4-(4-(trifluoromethoxy)phenyl)-1H-1,2,3-triazol-1-yl)methyl)-2,3-dihydroimidazo[2,1-b]oxazole] | 2 µg/mL (≈ 4.87 µM) | 2 µg/mL (≈ 4.87 µM) | 1 µg/mL (≈ 2.44 µM) | – | –
2 | C[C@]1(Cn2cc(-c3ccc(C(F)(F)F)cc3)nn2)Cn2cc([N+](=O)[O-])nc2O1 [I2, (R)-2-Methyl-6-nitro-2-((4-(4-(trifluoromethyl)phenyl)-1H-1,2,3-triazol-1-yl)methyl)-2,3-dihydroimidazo[2,1-b]oxazole] | 4 µg/mL (≈ 10.1 µM) | 2 µg/mL (≈ 5.07 µM) | 2 µg/mL (≈ 5.07 µM) | – | –
3 | C[C@]1(Cn2cc(-c3ccc(F)cc3)nn2)Cn2cc([N+](=O)[O-])nc2O1 [I3, (R)-2-((4-(4-Fluorophenyl)-1H-1,2,3-triazol-1-yl)methyl)-2-methyl-6nitro-2,3-dihydro imidazo[2,1-b]oxazole] | 2 µg/mL (≈ 5.81 µM) | 2 µg/mL (≈ 5.81 µM) | 2 µg/mL (≈ 5.81 µM) | – | –
4 | Cc1cc(-c2cn(C[C@@]3(C)Cn4cc([N+](=O)[O-])nc4O3)nn2)ccc1F [I4, (R)-2-((4-(4-Fluoro-3-methylphenyl)-1H-1,2,3-triazol-1-yl)methyl)-2-methyl-6-nitro-2,3-dihydroimidazo[2,1-b]oxazole] | 1 µg/mL (≈ 2.79 µM) | 4 µg/mL (≈ 11.2 µM) | 2 µg/mL (≈ 5.58 µM) | – | –
5 | C[C@]1(Cn2cc(-c3ccc(F)cc3F)nn2)Cn2cc([N+](=O)[O-])nc2O1 [I5, (R)-2-((4-(2,4-Difluorophenyl)-1H-1,2,3-triazol-1-yl)methyl)-2-methyl-6-nitro-2,3-dihydroimidazo[2,1-b]oxazole] | 4 µg/mL (≈ 11 µM) | 1 µg/mL (≈ 2.76 µM) | 4 µg/mL (≈ 11 µM) | – | –
6 | C[C@]1(Cn2cc(-c3ccc(Oc4ccccc4)cc3)nn2)Cn2cc([N+](=O)[O-])nc2O1 [I6, (R)-2-Methyl-6-nitro-2-((4-(4-phenoxyphenyl)-1H-1,2,3-triazol-1-yl)methyl)-2,3-dihydroimidazo[2,1-b]oxazole] | 1 µg/mL (≈ 2.39 µM) | 1 µg/mL (≈ 2.39 µM) | 1 µg/mL (≈ 2.39 µM) | – | –
7 | CCCCCc1cn(C[C@@]2(C)Cn3cc([N+](=O)[O-])nc3O2)nn1 [I7, (R)-2-[(4-Pentyl-1H-1,2,3-triazol-1-yl)methyl]-2,3-dihydro-2-methyl-6-nitroimidazo[2,1-b]oxazole] | 8 µg/mL (≈ 25 µM) | 2 µg/mL (≈ 6.24 µM) | 8 µg/mL (≈ 25 µM) | – | –
8 | C[C@]1(Cn2cc(COc3ccc(OC(F)(F)F)cc3)nn2)Cn2cc([N+](=O)[O-])nc2O1 [I8, (R)-2-Methyl-6-nitro-2-((4-((4-(trifluoromethoxy)phenoxy)methyl)-1H-1,2,3-triazol-1-yl)methyl)-2,3-dihydroimidazo[2,1-b]oxazole] | 2 µg/mL (≈ 4.54 µM) | 2 µg/mL (≈ 4.54 µM) | 2 µg/mL (≈ 4.54 µM) | – | –
9 | C[C@]1(Cn2cc(COc3ccc(C(F)(F)F)cc3)nn2)Cn2cc([N+](=O)[O-])nc2O1 [I9, (R)-2-Methyl-6-nitro-2-((4-((4-(trifluoromethyl)phenoxy)methyl)-1H-1,2,3-triazol-1-yl)methyl)-2,3-dihydroimidazo[2,1-b]oxazole] | 4 µg/mL (≈ 9.43 µM) | 4 µg/mL (≈ 9.43 µM) | 4 µg/mL (≈ 9.43 µM) | – | –
10 | C[C@]1(Cn2cc(COc3cccc(Cl)c3)nn2)Cn2cc([N+](=O)[O-])nc2O1 [I10, (R)-2-((4-((3-Chlorophenoxy)methyl)-1H-1,2,3-triazol-1-yl)methyl)-2-methyl-6-nitro-2,3-dihydroimidazo[2,1-b]oxazole] | 2 µg/mL (≈ 5.12 µM) | 2 µg/mL (≈ 5.12 µM) | 4 µg/mL (≈ 10.2 µM) | – | –
11 | C[C@]1(Cn2cc(COc3ccc(Br)cc3)nn2)Cn2cc([N+](=O)[O-])nc2O1 [I11, (R)-2-((4-((4-Bromophenoxy)methyl)-1H-1,2,3-triazol-1-yl)methyl)-2-methyl-6-nitro-2,3-dihydroimidazo[2,1-b]oxazole] | 0.12 µg/mL (≈ 0.276 µM) | 0.12 µg/mL (≈ 0.276 µM) | 0.25 µg/mL (≈ 0.574 µM) | 0.12 µg/mL (≈ 0.276 µM) | < 1 µg/mL
12 | Cc1ccc(OCc2cn(C[C@@]3(C)Cn4cc([N+](=O)[O-])nc4O3)nn2)cc1 [I12, (R)-2-Methyl-6-nitro-2-((4-((p-tolyloxy)methyl)-1H-1,2,3-triazol-1-yl)methyl)-2,3-dihydroimidazo[2,1-b]oxazole] | 8 µg/mL (≈ 21.6 µM) | 2 µg/mL (≈ 5.4 µM) | 8 µg/mL (≈ 21.6 µM) | – | –
13 | Cc1cccc(OCc2cn(C[C@@]3(C)Cn4cc([N+](=O)[O-])nc4O3)nn2)c1 [I13, (R)-2-Methyl-6-nitro-2-((4-((m-tolyloxy)methyl)-1H-1,2,3-triazol-1-yl)methyl)-2,3-dihydroimidazo[2,1-b]oxazole] | 1 µg/mL (≈ 2.7 µM) | 1 µg/mL (≈ 2.7 µM) | 2 µg/mL (≈ 5.4 µM) | – | –
14 | Cc1ccccc1OCc1cn(C[C@@]2(C)Cn3cc([N+](=O)[O-])nc3O2)nn1 [I14, (R)-2-Methyl-6-nitro-2-((4-((o-tolyloxy)methyl)-1H-1,2,3-triazol-1-yl)methyl)-2,3-dihydroimidazo[2,1-b]oxazole] | 1 µg/mL (≈ 2.7 µM) | 1 µg/mL (≈ 2.7 µM) | 1 µg/mL (≈ 2.7 µM) | – | –
15 | CCc1ccc(OCc2cn(C[C@@]3(C)Cn4cc([N+](=O)[O-])nc4O3)nn2)cc1 [I15, (R)-2-((4-((4-Ethylphenoxy)methyl)-1H-1,2,3-triazol-1-yl)methyl)-2-methyl-6-nitro-2,3-dihydroimidazo[2,1-b]oxazole] | 4 µg/mL (≈ 10.4 µM) | 2 µg/mL (≈ 5.2 µM) | 4 µg/mL (≈ 10.4 µM) | – | –
16 | C[C@]1(Cn2cc(COc3cccc(F)c3)nn2)Cn2cc([N+](=O)[O-])nc2O1 [I16, (R)-2-((4-((3-Fluorophenoxy)methyl)-1H-1,2,3-triazol-1-yl)methyl)-2-methyl-6-nitro-2,3-dihydroimidazo[2,1-b]oxazole] | 2 µg/mL (≈ 5.34 µM) | 2 µg/mL (≈ 5.34 µM) | 2 µg/mL (≈ 5.34 µM) | – | –
17 | C[C@]1(Cn2cc(COc3ccccc3F)nn2)Cn2cc([N+](=O)[O-])nc2O1 [I17, (R)-2-((4-((2-Fluorophenoxy)methyl)-1H-1,2,3-triazol-1-yl)methyl)-2-methyl-6-nitro-2,3-dihydroimidazo[2,1-b]oxazole] | 1 µg/mL (≈ 2.67 µM) | 0.5 µg/mL (≈ 1.34 µM) | 1 µg/mL (≈ 2.67 µM) | 0.5 µg/mL (≈ 1.34 µM) | < 1 µg/mL
18 | CC(C)c1ccc(OCc2cn(C[C@@]3(C)Cn4cc([N+](=O)[O-])nc4O3)nn2)cc1 [I18, (R)-2-((4-((4-Isopropylphenoxy)methyl)-1H-1,2,3-triazol-1-yl)methyl)-2-methyl-6-nitro-2,3-dihydroimidazo[2,1-b]oxazole] | 2 µg/mL (≈ 5.02 µM) | 1 µg/mL (≈ 2.51 µM) | 4 µg/mL (≈ 10 µM) | – | –
19 | C[C@]1(Cn2cc(COc3ccccn3)nn2)Cn2cc([N+](=O)[O-])nc2O1 [I19, (R)-2-Methyl-6-nitro-2-((4-((pyridin-2-yloxy)methyl)-1H-1,2,3-triazol-1-yl)methyl)-2,3-dihydroimidazo[2,1-b]oxazole] | 0.5 µg/mL (≈ 1.4 µM) | 0.25 µg/mL (≈ 0.7 µM) | 0.5 µg/mL (≈ 1.4 µM) | – | < 1 µg/mL
20 | Cc1ccc(SCc2cn(C[C@@]3(C)Cn4cc([N+](=O)[O-])nc4O3)nn2)cc1 [I20, (R)-2-Methyl-6-nitro-2-((4-((p-tolylthio)methyl)-1H-1,2,3-triazol-1-yl)methyl)-2,3-dihydroimidazo[2,1-b]oxazole] | 0.25 µg/mL (≈ 0.647 µM) | 0.5 µg/mL (≈ 1.29 µM) | 2 µg/mL (≈ 5.18 µM) | – | < 1 µg/mL
21 | Cc1ccc(OCCc2cn(C[C@@]3(C)Cn4cc([N+](=O)[O-])nc4O3)nn2)cc1 [I21, (R)-2-Methyl-6-nitro-2-((4-(2-(p-tolyloxy)ethyl)-1H-1,2,3-triazol-1-yl)methyl)-2,3-dihydroimidazo[2,1-b]oxazole] | 1 µg/mL (≈ 2.6 µM) | 0.25 µg/mL (≈ 0.65 µM) | 0.25 µg/mL (≈ 0.65 µM) | 0.25 µg/mL (≈ 0.65 µM) | < 1 µg/mL
22 | C[C@]1(Cn2cc(CN3CCOCC3)nn2)Cn2cc([N+](=O)[O-])nc2O1 [I22, (R)-2-Methyl-2-((4-(morpholinomethyl)-1H-1,2,3-triazol-1-yl)methyl)-6-nitro-2,3-dihydroimidazo[2,1-b]oxazole] | 2 µg/mL (≈ 5.72 µM) | 2 µg/mL (≈ 5.72 µM) | 2 µg/mL (≈ 5.72 µM) | – | –
